Data as given in PMC8333425, “Discovery of a dual Ras and ARF6 inhibitor from a GPCR endocytosis screen” (Nature Communications, 2021).
Where “and” joins values, the source holds several entries; their conditions need not be identical. Identical values can stand only once.

Experiments:
[1] = system: MEK1; assay: Western blot of ERK1/2 phosphorylation induced by MEK1 (MEK1-WT / MEK1-DD); type: cell-based, human
Experimental: HEK293SL cells (10^5 cells per well) were seeded in a poly-L-lysine-coated six-well plate and transiently transfected with 3 μg Flag-AT1R, HA-B2R or HA-β2AR and/or 500 ng Flag-MEK1-WT, Flag-MEK1-DD, Flag-BRAF-WT, Flag-BRAF-V600E, Flag-K-Ras-WT, Flag-K-Ras-G12V, HA-ARF6-WT, or HA-ARF6-T27N. Gαq/11 KO and βarr1/2 KO cells were seeded onto 100 mm dishes at a density of 10^6 cells per dish. Next day, cells were transfected with 3 μg AT1R alone or along with 500 ng of β-arrestin2 using PEI. After 18 h of transfection, cells were detached and re-seeded onto poly-L-lysine coated 12-well plates (~1.5–2 × 10^5cells/well) for subsequent experiments. Forty-eight hours post transfection, in a 37 °C water bath, cells were serum-starved for 30 min, pretreated with DMSO (0.1%) or compound 21/Rasarfin (50 µM or at indicated concentrations) for 30 min, then stimulated or not with the indicated ligand [AngII (1 µM), BK (1 µM), Iso (10 µM) or EGF (100 ng/ml)] at indicated times. Cells were put on ice, washed with PBS and solubilized in 2x laemmli buffer (250 mM Tris–HCl pH 6.8, 2% SDS (w/v), 10% glycerol (v/v), 0.01% bromophenol blue (w/v) and 5% β-mercaptoethanol (v/v)) by heating at 65 °C for 15 min. Lysates were resolved on 10 or 14% SDS-PAGE, transferred to nitrocellulose membranes and immunoblotted for p-ERK1/2, ERK1/2, p-Akt, Akt, HA, Myc, β-actin or FLAG. ImageLab 5.2 software was used to quantify the digital blots as fold of the phosphorylated protein over total protein, which were then normalized as indicated in the figure legends. Uncropped immunoblots are provided in the Source Data file.

[2] = target: T1, Gαq (Homo sapiens, UniProt P50148); assay: Gαq BRET sensor, AT1R-mediated; type: cell-based
T1 construct: expressed in transfected cells; host or cells: HEK293SL
T1 sequence (P50148 whole entry): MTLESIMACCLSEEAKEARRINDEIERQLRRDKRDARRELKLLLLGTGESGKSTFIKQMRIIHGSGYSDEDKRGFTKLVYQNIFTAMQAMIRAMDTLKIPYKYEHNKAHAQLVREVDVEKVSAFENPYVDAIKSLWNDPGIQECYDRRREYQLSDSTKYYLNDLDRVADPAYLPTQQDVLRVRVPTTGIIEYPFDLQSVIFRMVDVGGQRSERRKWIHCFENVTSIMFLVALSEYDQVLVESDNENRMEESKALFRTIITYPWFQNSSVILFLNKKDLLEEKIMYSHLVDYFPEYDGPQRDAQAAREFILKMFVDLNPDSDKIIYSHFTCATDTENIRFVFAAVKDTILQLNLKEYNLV
T1 sequence (P62873 whole entry partner): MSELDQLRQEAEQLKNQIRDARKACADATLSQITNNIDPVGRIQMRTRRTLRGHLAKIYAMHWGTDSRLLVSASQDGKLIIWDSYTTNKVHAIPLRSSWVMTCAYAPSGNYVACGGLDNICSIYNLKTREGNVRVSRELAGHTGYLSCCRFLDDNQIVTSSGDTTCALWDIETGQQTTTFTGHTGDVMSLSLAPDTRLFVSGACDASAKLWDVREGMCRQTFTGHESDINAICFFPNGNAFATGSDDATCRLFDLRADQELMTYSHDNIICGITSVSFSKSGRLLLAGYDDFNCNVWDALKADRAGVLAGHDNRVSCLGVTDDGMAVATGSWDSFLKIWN
T1 sequence (P63211 2-71 partner limits assumed): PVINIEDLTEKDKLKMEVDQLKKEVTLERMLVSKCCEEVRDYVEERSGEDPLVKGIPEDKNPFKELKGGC
Experimental: HEK293SL cells were seeded at a density of 7.5 × 10^5 cells per 100-mm dish and 24 h later, transiently transfected as such. For receptor internalization experiments, cells were transfected with 0.12 μg AT1R-RlucII, B2R-RlucII, or β2AR-RlucII and 0.48 μg of either rGFP-CAAX (to assess removal from the PM) or rGFP-FYVE (to assess accumulation in the endosomes). For β-arrestin recruitment assays, cells were transfected with 0.48 μg of receptor-YFP along with 0.12 μg of β-arrestin-RlucII. For β-arrestin/AP-2 binding experiments, cells were transfected with 1 μg Flag-AT1R, 1 μg β2-Adaptin-YFP, and 0.12 μg β-arrestin2-RlucII. For G protein activation, cells were transfected with 3 μg of sp-Flag-AT1R along with either 4.5 μg of the Gαq-polycistronic BRET sensor or 0.24 μg of the Gαi3-RlucII and 0.6 μg of GFP10-Gγ2 and Gβ1 sensors or 0.12 μg PKN-RBD-RlucII and 0.48 μg of rGFP-CAAX. For PKC activation, cells were transfected with 3 μg of sp-Flag-AT1R and 0.18 μg of the PKC sensor. For GTPase activation experiments, cells were transfected with 1 μg Flag-AT1R, 0.48 μg of rGFP-CAAX, and either 0.12 μg of GGA3-PBD-RlucII, PAK-CRIB-RlucII or Raf-RBD-RlucII. For biosensor validation experiments, cells were additionally transfected with 500 ng Flag-K-Ras-WT, Flag-K-Ras-G12V, Flag-K-Ras-SOS-CAAX, HA-ARF6-WT, HA-ARF6-T27N, Myc-Rac1-WT, Myc-Rac1-Q61L or Myc-Rac1-T17N. For PI3K/Akt activation experiments, cells were transfected with 0.48 μg of rGFP-CAAX and 0.12 μg of Akt (PH)-RlucII. After 18 h of transfection, the media was replaced and cells were divided for subsequent experiments. Cells were detached and seeded onto poly-L-ornithine-coated 96-well flat white bottom plates (BrandTech Scientific) at a density of 2.5 × 10^4 cells per well in media. […] For kinetics of β-arrestin recruitment or β-arrestin binding to receptor and AP-2 experiments, cells were serum starved for 30 min, pretreated with 21 (50 µM) or Barbadin (100 µM) for 30 min, stimulated with 100 nM AngII or 1 µM BK and BRET signals were monitored at indicated times using a Victor X Light plate reader (PerkinElmer). […] The BRET ratio was determined by calculating the ratio of the light emitted by YFP over the light emitted by the RlucII. […] For the kinetics of GTPase and PI3K/Akt activation, cells were serum starved, pretreated with 21 (50 µM) or Wortmannin (200 nM) for 30 min, stimulated with ligand (100 nM AngII or 100 ng/ml EGF) and BRET signals were monitored at indicated times. […] BRET signals were monitored using a Synergy2 (BioTek) microplate reader and coelenterazine 400a (final concentrations of 5 µM) added 3–5 min prior to BRET measurements. […] The BRET ratio was determined by calculating the ratio of the light emitted by rGFP/GFP10 over the light emitted by the RlucII.

[3] = system: PKC; assay: PKC BRET sensor, AT1R-mediated; type: cell-based, human
Experimental: HEK293SL cells were seeded at a density of 7.5 × 10^5 cells per 100-mm dish and 24 h later, transiently transfected as such. For receptor internalization experiments, cells were transfected with 0.12 μg AT1R-RlucII, B2R-RlucII, or β2AR-RlucII and 0.48 μg of either rGFP-CAAX (to assess removal from the PM) or rGFP-FYVE (to assess accumulation in the endosomes). For β-arrestin recruitment assays, cells were transfected with 0.48 μg of receptor-YFP along with 0.12 μg of β-arrestin-RlucII. For β-arrestin/AP-2 binding experiments, cells were transfected with 1 μg Flag-AT1R, 1 μg β2-Adaptin-YFP, and 0.12 μg β-arrestin2-RlucII. […] For kinetics of β-arrestin recruitment or β-arrestin binding to receptor and AP-2 experiments, cells were serum starved for 30 min, pretreated with 21 (50 µM) or Barbadin (100 µM) for 30 min, stimulated with 100 nM AngII or 1 µM BK and BRET signals were monitored at indicated times using a Victor X Light plate reader (PerkinElmer). […] The BRET ratio was determined by calculating the ratio of the light emitted by YFP over the light emitted by the RlucII. […] For the kinetics of GTPase and PI3K/Akt activation, cells were serum starved, pretreated with 21 (50 µM) or Wortmannin (200 nM) for 30 min, stimulated with ligand (100 nM AngII or 100 ng/ml EGF) and BRET signals were monitored at indicated times. […]

## CC(C)C(=O)N1CCN(c2ccc(NC(=O)c3cc4ccccc4o3)cc2Cl)CC1 [Compound 21]
[1]; 50 μM
  ERK1/2 activation induced by overexpression of MEK1-DD: nor did it block ERK1/2 activation
[1]; Flag-MEK1 DD
  Predicted (LS) mean diff. DMSO vs. compound (Bonferroni's multiple comparisons test): 0.4193
[1]; Flag-MEK1 DD, listed as Comp 21
  ERK1/2 phosphorylation relative to mock (S_Fig.4c): 4.057 and 4.133 and 4.072 and 3.9273
[1]; Flag-MEK1 WT
  Predicted (LS) mean diff. DMSO vs. compound (Bonferroni's multiple comparisons test): 0.04596
[1]; Flag-MEK1 WT, listed as Comp 21
  ERK1/2 phosphorylation relative to mock (S_Fig.4c): 1.754 and 1.134 and 1.2368
[1]; mock
  ERK1/2 phosphorylation relative to mock (S_Fig.4c): 1
  Predicted (LS) mean diff. DMSO vs. compound (Bonferroni's multiple comparisons test): 0
[2]
  Mean Diff. DMSO vs. compound, Gq (Dunnett's multiple comparisons test): 0.009667
[2]; 50 μM
  Gαq engagement by AT1R (BRET sensor): lack of inhibitory effects
[2]; listed as Comp 21
  Gq BRET sensor signal (S_Fig.4b), single experiments: 0.1945 and 0.171 and 0.2095
[3]; 50 μM
  AT1R-mediated PKC activation: did not inhibit AT1R-mediated PKC activation
[3]; listed as Comp 21
  PKC BRET sensor signal (S_Fig.4b), single experiments: 0.07767 and 0.069 and 0.0815
